Laboratory results taken from US9339508B2, “Use of 3-methoxy-pregnenolone for the preparation of a drug for treating a traumatic brain injury” (MAPREG, priority 2003, dated 2016).

What was measured:
PC12 cells = assay: Neuritic growth / sprouting of PC12 cells in the presence of NGF; assay type: cell-based, rat; settings: 30 μM; for Neuritic sprouting: 3 days, NGF 10 ng/ml, relative to PREG
Procedure: Each molecule was tested in three culture wells. Measurements were taken for 200 cells per well using Scion Image software.
Neurite (neurite) length was measured for 200 cells per well after 2, 5, and 8 days of culture.
To rest the effect of selected molecules on neuritic growth, we first used the PC12 line, which has long been employed in neurobiological research. In the presence of NOF (nerve growth factor), the cells of this line, which arise from a rat pheochromocytoma, form neuritic extensions containing MAP-associated microtubules.
Stimulation of neuritic sprouting is conducted on PC12 cells differentiated in the presence of NGF (10 ng/ml) and the steroid being tested (30 μM) for 3 days. For each condition, the average length of the longest 200 neurites in each cell is measured simultaneously for 3 cultures.

[1] = target: purified tubulin and MAP2 (Homo sapiens, UniProt P11137); assay: MAP2-induced polymerization of microtubules in vitro (optical density at 345 nm); assay type: biochemical
Sequence of purified tubulin and MAP2 (P11137 whole entry): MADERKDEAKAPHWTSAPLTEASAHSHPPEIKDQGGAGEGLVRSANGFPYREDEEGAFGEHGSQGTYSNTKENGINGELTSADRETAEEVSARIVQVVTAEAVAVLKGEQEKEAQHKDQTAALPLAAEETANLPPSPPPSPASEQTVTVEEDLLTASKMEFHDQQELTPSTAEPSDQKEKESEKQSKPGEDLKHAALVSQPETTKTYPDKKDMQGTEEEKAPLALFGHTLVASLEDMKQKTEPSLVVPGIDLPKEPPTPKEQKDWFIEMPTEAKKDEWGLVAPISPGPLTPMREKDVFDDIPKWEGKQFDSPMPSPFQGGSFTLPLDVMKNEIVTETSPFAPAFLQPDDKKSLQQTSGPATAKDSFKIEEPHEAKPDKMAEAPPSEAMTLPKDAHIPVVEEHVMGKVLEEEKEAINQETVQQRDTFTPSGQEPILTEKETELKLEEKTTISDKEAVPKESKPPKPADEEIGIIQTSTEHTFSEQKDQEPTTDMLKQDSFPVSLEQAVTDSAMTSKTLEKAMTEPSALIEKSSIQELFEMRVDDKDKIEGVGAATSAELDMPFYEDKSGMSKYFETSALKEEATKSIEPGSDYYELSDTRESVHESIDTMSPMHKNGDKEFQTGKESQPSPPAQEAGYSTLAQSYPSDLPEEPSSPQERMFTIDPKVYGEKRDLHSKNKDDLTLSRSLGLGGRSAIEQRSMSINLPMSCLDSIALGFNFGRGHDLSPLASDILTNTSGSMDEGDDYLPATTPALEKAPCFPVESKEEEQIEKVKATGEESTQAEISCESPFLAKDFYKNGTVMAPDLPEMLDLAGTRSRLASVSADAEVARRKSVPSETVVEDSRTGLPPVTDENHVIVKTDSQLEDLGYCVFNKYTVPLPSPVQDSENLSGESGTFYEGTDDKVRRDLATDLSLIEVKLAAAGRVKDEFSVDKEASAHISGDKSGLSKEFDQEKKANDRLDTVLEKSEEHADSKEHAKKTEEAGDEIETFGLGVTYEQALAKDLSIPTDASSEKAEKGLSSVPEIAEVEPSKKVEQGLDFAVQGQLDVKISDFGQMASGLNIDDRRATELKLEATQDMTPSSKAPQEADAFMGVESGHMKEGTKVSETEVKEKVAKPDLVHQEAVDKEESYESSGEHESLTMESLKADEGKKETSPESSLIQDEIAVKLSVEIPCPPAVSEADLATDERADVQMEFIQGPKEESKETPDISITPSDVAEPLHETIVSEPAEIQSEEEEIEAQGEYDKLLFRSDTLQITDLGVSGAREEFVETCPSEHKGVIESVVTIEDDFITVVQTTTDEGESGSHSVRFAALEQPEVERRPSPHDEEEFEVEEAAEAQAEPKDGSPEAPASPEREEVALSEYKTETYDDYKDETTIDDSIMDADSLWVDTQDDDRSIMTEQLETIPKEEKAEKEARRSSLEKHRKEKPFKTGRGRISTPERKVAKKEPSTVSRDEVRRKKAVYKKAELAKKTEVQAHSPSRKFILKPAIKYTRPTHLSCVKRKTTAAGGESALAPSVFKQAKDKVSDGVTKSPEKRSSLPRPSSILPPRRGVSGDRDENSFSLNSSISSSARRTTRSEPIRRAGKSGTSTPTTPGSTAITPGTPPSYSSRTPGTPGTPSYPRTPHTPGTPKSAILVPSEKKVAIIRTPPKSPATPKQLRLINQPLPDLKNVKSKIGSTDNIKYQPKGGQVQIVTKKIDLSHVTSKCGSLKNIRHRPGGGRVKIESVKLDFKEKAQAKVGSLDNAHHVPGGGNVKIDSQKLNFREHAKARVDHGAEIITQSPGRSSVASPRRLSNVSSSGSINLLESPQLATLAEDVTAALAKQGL
Procedure: Purified MAP2 and tubulin are mixed in the presence of GTP at 4° C. in a spectrophotometer cuvette. Polymerization is induced by heating at 37° C. and is followed by the increase in optical density (OD) which indicates the quantity of polymers formed.
This in vitro test measures the effect of molecules on the MAP2-induced polymerization of microtubules. This polymerization occurs when MAP2 proteins and tubulin are mixed at adequate concentrations in the presence of GTP. It is accompanied by an increase in optical density measured at 345 nm for 15 to 30 minutes with a UNICON spectrophotometer thermostated at 37° C. (FIG. 1).
Activity is measured by the increase in optical density at 345 nm of a mixture of purified tubulin and MAP2, incubated at 37° C. in the presence of GTP.

PC12 cell line = assay: Cellular toxicity on the PC12 cell line; assay type: cell-based, rat; settings: concentrations as high as solubility limits
Procedure: Cellular toxicity tests are carried out routinely on the PC12 cell line.

[2] = test system: transgenic mice expressing the longest isoform of human tau protein; assay: RotaRod motor incoordination in transgenic tau mice; assay type: in vivo, mouse; settings: subcutaneous implant releasing 0.38 mg per day for 90 days
Text: FIG. 8: Effect of molecule 43B on the motor incoordination of transgenic mice expressing the longest isoform of human tau protein in their neurons. […] The maximum speed of rotation of the RotaRod drum before the […] falls is a measurement of motor coordination (higher values correspond to a better treatment effect).
In order to evaluate the therapeutic potential of 433 to treat Alzheimer-type neurodegenerative diseases, a homozygous transgenic line of mice, such as described by Götz (EMBO J. 1995; 14(7):1304-13), can be used.
These mice express the longest human tau protein isoform. They present symptoms of neurological dysfunction expressed as muscular weakness and a reduction in motor coordination which correlate histologically with the appearance of abnormal neurites and hyperphosphorylated tau proteins as is seen in Alzheimer's disease. This pathological phosphorylation decreases the affinity of tau for microtubules and favors its aggregation.
A breeding program was undertaken at Bicêtre and genotyping made it possible to select mice homozygous for the transgene. […] The implants released 0.38 mg of steroid per day for 90 days. The progression of motor incoordination was followed by repeated RotaRod tests.

[3] = test system: α-tubulin in rat hippocampus; assay: Microtubule dynamics in rat hippocampus (Tyr/Glu-Tub ratio, Acet-Tub); assay type: in vivo; settings: 10 mg/kg subcutaneously, single administration
Text: Mean±SEM, n=6 per group. **P<0.01, *P<0.5 vs sesame oil.
The effects produced by neurosteroids were compared with those produced by acute administration of the antidepressant drug fluoxetine (selective serotonin reuptake inhibitor SSRI).
Neurosteroids and 3-Methoxy-PREG (43B) Levels

Sprague Dawley rats = assay: Forced swimming test (FST); assay type: in vivo, rat; settings: 10 mg/kg subcutaneously, 24, 5, 1 h before testing
Procedure: Drugs were administered following the traditional dosing regimen used in the FST consisting of three injections: 24, 5, 1 h before testing.
The FET is currently the most widely used animal model for assessing depression related behavior and antidepressant drug activity in rodents (Cryan et al., Neubiorev. 2005). Rats are placed in an inescapable cylinder of water where they develop an immobile posture believed to reflect a “depressive”-like state. The Lime rats spend immobile is decreased by drugs exerting antidepressant activity.
Additional behaviors can be detected in the FST; namely, climbing and swimming. It has been shown that swimming behavior is sensitive to SSRIs such as fluoxetine whereas climbing is sensitive to norepinephrine re-uptake inhibitors (NRI) such as desipramine.

[4] = target: T1, human progesterone receptor (PR) (Homo sapiens, UniProt P06401); assay: Test of progesterone receptor antagonist activity (luciferase transactivation, HEK293T); assay type: cell-based; settings: with progesterone 1 nM, increasing amounts
T1 construct: expressed in transfected cells; host or cells: HEK293T cells
T1 sequence (P06401 1-933): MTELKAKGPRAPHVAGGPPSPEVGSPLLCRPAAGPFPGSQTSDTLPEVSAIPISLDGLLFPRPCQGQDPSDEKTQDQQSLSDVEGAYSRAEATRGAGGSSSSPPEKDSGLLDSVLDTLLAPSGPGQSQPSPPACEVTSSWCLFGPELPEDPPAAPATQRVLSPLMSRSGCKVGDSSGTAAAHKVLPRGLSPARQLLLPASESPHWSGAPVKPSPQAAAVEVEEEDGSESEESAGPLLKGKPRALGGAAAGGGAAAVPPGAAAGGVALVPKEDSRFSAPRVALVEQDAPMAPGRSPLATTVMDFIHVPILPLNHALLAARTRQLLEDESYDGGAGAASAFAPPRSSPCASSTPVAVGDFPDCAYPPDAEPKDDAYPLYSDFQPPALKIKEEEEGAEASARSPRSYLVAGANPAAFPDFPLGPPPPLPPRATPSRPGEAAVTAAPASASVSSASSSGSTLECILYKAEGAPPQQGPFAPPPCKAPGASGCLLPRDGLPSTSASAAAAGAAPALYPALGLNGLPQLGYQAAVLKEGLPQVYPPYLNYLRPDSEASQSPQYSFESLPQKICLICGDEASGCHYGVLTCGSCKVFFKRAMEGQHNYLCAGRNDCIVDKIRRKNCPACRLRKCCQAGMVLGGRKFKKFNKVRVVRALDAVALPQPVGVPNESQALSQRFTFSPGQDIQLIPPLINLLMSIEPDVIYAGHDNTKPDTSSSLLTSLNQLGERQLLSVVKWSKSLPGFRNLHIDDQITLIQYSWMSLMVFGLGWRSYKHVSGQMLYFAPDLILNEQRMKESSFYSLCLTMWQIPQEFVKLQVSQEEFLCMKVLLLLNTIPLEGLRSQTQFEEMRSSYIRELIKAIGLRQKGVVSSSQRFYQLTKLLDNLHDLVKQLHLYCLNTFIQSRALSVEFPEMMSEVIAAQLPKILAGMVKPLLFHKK
Procedure: (§1) The main experimental setting used is the following: HEK293T cells were transiently transfected, using calcium phosphate precipitation technology, with expression receptors pSG5hPR (which permits expression of human progesterone receptor (PR)), pFC31-luc (contains the luciferase gene under the control of the MTV promoter, which is in turn activated by binding of a progestin to progesterone receptor) and pcbetagal (which permits expression of betagalactosidase), and cultured during 24 hours with increasing amounts of various compositions: • 1. […] Test of progesterone receptor […] activity: transfected cells were cultured with progesterone (1 nM) and increasing amounts of RU486 (a well-known progesterone receptor antagonist) or 3-methoxy-pregnenolone. • With this setting, a compound with progesterone receptor antagonist activity competes with progesterone for the occupation of progesterone receptor and results in a progressive loss of transactivation activity when the amount of this compound is increased compared to progesterone. Results

[5] = target: T1, human progesterone receptor (PR); assay: Test of progesterone receptor agonist activity (luciferase transactivation, HEK293T); assay type: cell-based; settings: 24 hours, increasing amounts
Procedure: as §1

[6] = 40 μM, compared to solvent alone

CO[C@H]1CC[C@@]2(C)[C@@H](CC[C@@H]3[C@@H]2CC[C@]2(C)[C@@H](C(C)=O)CC[C@@H]32)C1 [3β-methoxy-5α-pregnane-20-one] was tested, and the Neuritic sprouting (PC12 cells) was “+++”.
CO[C@H]1CC[C@@]2(C)C(CCC3C2CC[C@@]2(C)C3CC[C@@H]2[C@@H](C)O)C1 (stereo partly drawn) [3β-methoxy-5α-pregnane-20β-ol] was tested, and the Neuritic sprouting (PC12 cells) was “++ (equal to)”.
In the case of CO[C@H]1CC[C@@]2(C)C(=CC[C@@H]3[C@@H]2CC[C@@]2(C)[C@H]3CC[C@@]2(C(C)=O)C(Cl)Cl)C1 [3β-methoxy-pregna-5-ene-20-one-17α-dichloromethyl], the Neuritic sprouting (PC12 cells) is reported as “+++”.
In the case of CC(=O)[C@H]1CC[C@H]2[C@@H]3CC=C4C[C@@H](O)CC[C@]4(C)[C@H]3CC[C@]12C [PREG, pregnenolone], the microtubule polymerization [1] is reported as “activates microtubule polymerization”, the “Lag time of microtubule polymerization” value [1, 6] is reported as “decreased” and the “polymerization rate and quantity of microtubules” value [1, 6] is reported as “clearly increase”. For the same compound, the “increase in the average length of the neurites” value (PC12 cells; 3 days of culture, NGF) was 60%, the Neuritic sprouting (PC12 cells) was “++ (equal to)” and the cellular toxicity (PC12 cell line) was “do not demonstrate toxicity”. The “motor dysfunction (RotaRod)” value [2] was “Only the 3-methoxy-PREG had a beneficial effect”, the “Acet-Tub (stable acetylated α-tubulin)” value [3] was “significantly decreased” and the “rat climbing behavior in the FST” value (Sprague Dawley rats) was “not changed”. For the same compound, the “rat swimming in the FST” value (Sprague Dawley rats) was “significantly increased”.
For CC(=O)[C@@]12C[C@@H]1C[C@H]1[C@@H]3CC=C4C[C@@H](O)CC[C@]4(C)[C@H]3CC[C@@]12C [PREG-16α,17α-methylene], the Neuritic sprouting (PC12 cells) was “+ (lower than)”.
In the case of CC(=O)[C@H]1[C@H](C)C[C@H]2[C@@H]3CC=C4C[C@@H](O)CC[C@]4(C)[C@H]3CC[C@@]21C [PREG-16α-methyl], the Neuritic sprouting (PC12 cells) is reported as “++ (equal to)”.
CC(=O)O[C@H](C)[C@H]1CC[C@H]2[C@@H]3CC=C4C[C@@H](O)CC[C@]4(C)[C@H]3CC[C@]12C [Pregna-5-ene-3β,20β-diol-20-acetate] was tested, and the Neuritic sprouting (PC12 cells) was “++ (equal to)”.
For CC#C[C@]1(O)CC[C@H]2[C@@H]3CCC4=CC(=O)CCC4=C3[C@@H](c3ccc(N(C)C)cc3)C[C@@]21C [RU486], the “progesterone receptor antagonist activity” value [4] was “very high antagonist activity”.
CNCCC(Oc1ccc(C(F)(F)F)cc1)c1ccccc1 (centres unmarked) [fluoxetine] was tested, and the “Acet-Tub (stable acetylated α-tubulin)” value [3] was “tendency to increase” and the Tyr/Glu-Tub ratio ([3]; 3 h) was “did not change”.
For CC(=O)[C@H]1CC[C@H]2[C@@H]3CCC4=CC(=O)CC[C@]4(C)[C@H]3CC[C@]12C [progesterone, reference compound], the microtubule polymerization [1] was “do not stimulate polymerization” and the “progesterone receptor agonist activity (transactivation)” value [5] was “permits a transactivation activity leading to the expression of luciferase”.
In the case of PREG-16α,17α-epoxy, the Neuritic sprouting (PC12 cells) is reported as “+ (lower than)”.
pregnenolone sulfate was tested, and the microtubule polymerization [1] was “do not stimulate polymerization”.
